Source: patent US11155560B2, “Substituted pyrazolo[1,5-a]pyrimidines for modulating CDK9 activity” (Kronos Bio, Inc., priority 2018, dated 2021)

The molecules below were run against CDK9/cyclin T1 (Homo sapiens, UniProt P50750) (assay: CDK9/cyclin T1 kinase inhibition, LANCE assay). Conditions: reaction time 60 minutes, 10 μM ATP, 10-dose IC50, compounds 35-126 (127-208 listed, method not stated), read-out: CDK9/cyclin T1 Potency Grade.
Assay type: biochemical
Procedure: Exemplary compounds of the invention (35-126) were tested for inhibition of CDK9/cyclin T1 kinase. Using a LANCE assay (reaction time 60 minutes), the compounds were tested in 10-dose IC50 duplicate mode with a 3-fold serial dilution starting at 4.3 μM. […] Reactions were carried out at 10 μM ATP. Data was normalized to positive and negative controls and curve fits were analyzed with XLFIT5 as % inhibition vs. log [compound concentration] using a 4-parameter logistic model205. Fit=(A+((B−A)/(1+((C/x)^D)))); Res =(y-fit).

Sequence of CDK9/cyclin T1 (P50750 whole entry): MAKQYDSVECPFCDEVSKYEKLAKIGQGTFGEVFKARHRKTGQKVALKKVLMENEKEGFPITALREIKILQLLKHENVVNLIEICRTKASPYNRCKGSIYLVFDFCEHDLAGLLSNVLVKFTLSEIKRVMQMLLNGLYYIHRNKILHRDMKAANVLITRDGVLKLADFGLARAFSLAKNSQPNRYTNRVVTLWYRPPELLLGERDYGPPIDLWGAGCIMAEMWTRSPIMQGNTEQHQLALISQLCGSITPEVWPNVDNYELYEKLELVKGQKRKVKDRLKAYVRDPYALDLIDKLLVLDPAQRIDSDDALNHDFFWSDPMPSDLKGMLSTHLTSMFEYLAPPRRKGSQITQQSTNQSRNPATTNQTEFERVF
Sequence of CDK9/cyclin T1 (O60563 whole entry partner): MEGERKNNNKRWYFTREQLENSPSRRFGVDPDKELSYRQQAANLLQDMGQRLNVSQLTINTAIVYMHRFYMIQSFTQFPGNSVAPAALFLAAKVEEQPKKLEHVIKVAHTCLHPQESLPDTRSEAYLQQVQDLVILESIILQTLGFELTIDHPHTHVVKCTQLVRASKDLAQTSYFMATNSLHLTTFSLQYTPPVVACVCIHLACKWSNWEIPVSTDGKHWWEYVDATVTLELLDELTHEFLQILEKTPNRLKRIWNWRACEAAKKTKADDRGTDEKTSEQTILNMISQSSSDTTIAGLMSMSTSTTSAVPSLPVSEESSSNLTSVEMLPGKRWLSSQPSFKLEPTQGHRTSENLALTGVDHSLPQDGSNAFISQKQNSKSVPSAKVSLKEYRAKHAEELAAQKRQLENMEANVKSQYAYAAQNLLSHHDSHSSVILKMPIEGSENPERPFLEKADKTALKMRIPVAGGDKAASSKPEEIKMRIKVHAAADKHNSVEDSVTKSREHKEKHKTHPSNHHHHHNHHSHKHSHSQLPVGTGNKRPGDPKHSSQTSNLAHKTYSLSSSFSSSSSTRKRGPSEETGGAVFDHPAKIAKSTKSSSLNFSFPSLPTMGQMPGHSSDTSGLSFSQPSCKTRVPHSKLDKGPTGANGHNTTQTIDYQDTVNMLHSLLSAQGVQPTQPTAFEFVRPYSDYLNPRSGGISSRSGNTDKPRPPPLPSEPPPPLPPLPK

N[C@H]1CC[C@H](Nc2cc(-c3ccc4c(c3)OCO4)nc3ccnn23)C1 [Compound 152] and N[C@H]1CC[C@H](Nc2cc(-c3ccc(F)cc3)nc3ccnn23)C1 [Compound 107] fall in the same range of IC50: 1 to 500 nM for the first, 1 to 500 nM for the second.

N[C@H]1CC[C@H](Nc2cc(Nc3cccc4ccccc34)nc3ccnn23)C1 [Compound 171] and N[C@H]1CC[C@H](Nc2cc(Nc3ccc4ccccc4c3)nc3ccnn23)C1 [Compound 162] fall in the same range of IC50: 1 to 500 nM for the first, 1 to 500 nM for the second.

COCCN[C@@H]1CC[C@@H](Nc2cc(C(C)C)nc3ccnn23)C1 [Compound 59] and CC(C)c1cc(N[C@@H]2CC[C@@H](NC=O)C2)n2nccc2n1 [Compound 137] fall in the same range of IC50: 1 to 500 nM for the first, 1 to 500 nM for the second.

N[C@H]1CC[C@H](Nc2cc(C#CC3CCCCC3)nc3ccnn23)C1 [Compound 119] and N[C@H]1CC[C@H](Nc2cc(C3CCCCC3)nc3ccnn23)C1 [Compound 115] fall in the same range of IC50: 1 to 500 nM for the first, 1 to 500 nM for the second.

CN(Cc1ccccc1)c1cc(N[C@H]2CC[C@H](N)C2)n2nccc2n1 [Compound 97] and N[C@H]1CC[C@H](Nc2cc(C#Cc3ccccc3)nc3ccnn23)C1 [Compound 118] fall in the same range of IC50: 1 to 500 nM for the first, 1 to 500 nM for the second.

CN/C(=N/C#N)N[C@@H]1CC[C@@H](Nc2cc(C(C)C)nc3ccnn23)C1 [Compound 63] and CC(C)OC(=O)N[C@@H]1CC[C@@H](Nc2cc(C(C)C)nc3ccnn23)C1 [Compound 140] fall in the same range of IC50: 1 to 500 nM for the first, 1 to 500 nM for the second.

N[C@H]1CC[C@H](Nc2cc(N3CCCCC3)nc3ccnn23)C1 [Compound 156] and N[C@H]1CC[C@H](Nc2cc(N3CCOCC3)nc3ccnn23)C1 [Compound 163] fall in the same range of IC50: 1 to 500 nM for the first, 1 to 500 nM for the second.

Cc1cnn2c(N[C@@H]3CC[C@@H](NC(=O)OCc4ccccc4)C3)cc(C(C)C)nc12 [Compound 178] and CC(C)c1cc(N[C@@H]2CC[C@@H](NC(=O)OCc3ccccc3)C2)n2ncc(Cl)c2n1 [Compound 158] fall in the same range of IC50: 1 to 500 nM for the first, 1 to 500 nM for the second.

Compared with COC(=O)N[C@H]1CC[C@H](Nc2cc(C3CC3)nc3ccnn23)C1 [Compound 180], O=CN[C@@H]1CC[C@@H](Nc2cc(C3CC3)nc3ccnn23)C1 [Compound 142] is lower in IC50: greater than 1000 nM for the first, 1 to 500 nM for the second.

CC(C)c1cc(N[C@@H]2CC[C@@H](N(O)C(N)=O)C2)n2nccc2n1 [Compound 151] and CC(C)c1cc(N[C@@H]2CC[C@@H](N(C)C=O)C2)n2nccc2n1 [Compound 146] fall in the same range of IC50: 1 to 500 nM for the first, 1 to 500 nM for the second.

CCN(CC)c1cc(N[C@H]2CC[C@H](N)C2)n2nccc2n1 [Compound 79] and CN(CCO)c1cc(N[C@H]2CC[C@H](N)C2)n2nccc2n1 [Compound 181] fall in the same range of IC50: 1 to 500 nM for the first, 1 to 500 nM for the second.

First: Cc1ncc(-c2cc(N[C@H]3CC[C@H](N)C3)n3nccc3n2)cn1 [Compound 103]
Second: Cc1cc(-c2cc(N[C@H]3CC[C@H](N)C3)n3nccc3n2)ccn1 [Compound 100]
The IC50 of the first is higher: 501 to 1000 nM for the first, 1 to 500 nM for the second.

CC(C)Cc1cc(N[C@H]2CC[C@H](N)C2)n2ncc(Cl)c2n1 [Compound 76] and Cc1cnn2c(N[C@H]3CC[C@H](N)C3)cc(CC(C)C)nc12 [Compound 184] fall in the same range of IC50: 1 to 500 nM for the first, 1 to 500 nM for the second.

First: CC(C)OC(=O)N[C@@H]1CC[C@@H](Nc2cc(C(C)C)nc3c(Cl)cnn23)C1 [Compound 68]
Second: Cc1cnn2c(N[C@@H]3CC[C@@H](NC(=O)OC(C)C)C3)cc(C(C)C)nc12 [Compound 85]
The IC50 of the first is higher: 501 to 1000 nM for the first, 1 to 500 nM for the second. The second is the more potent here.

First: CC(C)OC(=O)N[C@@H]1CC[C@@H](Nc2cc(C(C)C)nc3c(Cl)cnn23)C1 [Compound 159]
Second: Cc1cnn2c(N[C@@H]3CC[C@@H](NC(=O)OC(C)C)C3)cc(C(C)C)nc12 [Compound 176]
The IC50 of the first is higher: 501 to 1000 nM for the first, 1 to 500 nM for the second. The second is the more potent here.

N[C@H]1CC[C@H](Nc2cc(C3CCC(F)(F)CC3)nc3ccnn23)C1 [Compound 125] and N[C@@H]1CC[C@@H](Nc2cc(C3CC3)nc3ccnn23)C1 [Compound 134] fall in the same range of IC50: 1 to 500 nM for the first, 1 to 500 nM for the second.

CC(C)c1cc(N[C@@H]2CC[C@@H](NC(=O)OCc3ccccc3)C2)n2nccc2n1 [Compound 50] and CC(C)c1cc(N[C@@H]2CC[C@@H](NC(=O)OCc3ccccc3)C2)n2ncc(Cl)c2n1 [Compound 67] fall in the same range of IC50: 1 to 500 nM for the first, 1 to 500 nM for the second.

Compared with Cn1cncc1-c1cc(N[C@H]2CC[C@H](NC=O)C2)n2nccc2n1 [Compound 169], Cn1cncc1-c1cc(N[C@H]2CC[C@H](N)C2)n2nccc2n1 [Compound 174] is lower in IC50: 501 to 1000 nM for the first, 1 to 500 nM for the second.

CC1(C)CC1c1cc(N[C@H]2CC[C@H](N)C2)n2nccc2n1 (some centres unmarked) [Compound 208] and N[C@@H]1CC[C@@H](Nc2cc(C3CCC3)nc3ccnn23)C1 [Compound 133] fall in the same range of IC50: 1 to 500 nM for the first, 1 to 500 nM for the second.

Compared with CCNc1cc(N[C@H]2CC[C@H](N)C2)n2nccc2n1 [Compound 189], CC(=O)Nc1cc(N[C@@H]2CC[C@@H](N)C2)n2nccc2n1 [Compound 128] is higher in IC50: 1 to 500 nM for the first, greater than 1000 nM for the second.

First: CC(C)c1cc(N[C@@H]2CC[C@@H](NC(=O)OCc3ccccc3)C2)n2nccc2n1 [Compound 141]
Second: O=C(N[C@H]1CC[C@H](Nc2cc(C3CC3)nc3ccnn23)C1)OCc1ccccc1 [Compound 84]
The IC50 of the first is lower: 1 to 500 nM for the first, greater than 1000 nM for the second. The first is the more potent here.

CCC(C)c1cc(N[C@@H]2CC[C@@H](NC=O)C2)n2nccc2n1 (some centres unmarked) [Compound 52] and CC(C)c1cc(N[C@@H]2CC[C@@H](NC=O)C2)n2nccc2n1 [Compound 46] fall in the same range of IC50: 1 to 500 nM for the first, 1 to 500 nM for the second.

CC(C)(C#N)c1ccc(-c2cc(N[C@H]3CC[C@H](N)C3)n3nccc3n2)cc1 [Compound 204] and CC(C)c1ccc(-c2cc(N[C@H]3CC[C@H](N)C3)n3nccc3n2)cc1 [Compound 108] fall in the same range of IC50: 1 to 500 nM for the first, 1 to 500 nM for the second.

Cn1ccc(-c2cc(N[C@H]3CC[C@H](N)C3)n3nccc3n2)n1 [Compound 116] and CC(C)c1ccc(-c2cc(N[C@H]3CC[C@H](N)C3)n3nccc3n2)cc1 [Compound 199] fall in the same range of IC50: 1 to 500 nM for the first, 1 to 500 nM for the second.

CC(C)N(C)c1cc(N[C@H]2CC[C@H](N)C2)n2nccc2n1 [Compound 86] and CCN(CC)c1cc(N[C@H]2CC[C@H](N)C2)n2nccc2n1 [Compound 170] fall in the same range of IC50: 1 to 500 nM for the first, 1 to 500 nM for the second.

CCC(CC)c1cc(N[C@H]2CC[C@H](N(C)CCOC)C2)n2nccc2n1 [Compound 62] and CCC(CC)c1cc(N[C@H]2CC[C@H](Nc3ccccn3)C2)n2nccc2n1 [Compound 149] fall in the same range of IC50: 1 to 500 nM for the first, 1 to 500 nM for the second.

CC1(C)CC1c1cc(N[C@H]2CC[C@H](N)C2)n2nccc2n1 (some centres unmarked) [Compound 117] and N[C@@H]1CC[C@@H](Nc2cc(C3CCC3)nc3ccnn23)C1 [Compound 42] fall in the same range of IC50: 1 to 500 nM for the first, 1 to 500 nM for the second.

N[C@H]1CC[C@H](Nc2cc(-c3ccc(C4CC4)cc3)nc3ccnn23)C1 [Compound 205] and CC(C)(C#N)c1ccc(-c2cc(N[C@H]3CC[C@H](N)C3)n3nccc3n2)cc1 [Compound 113] fall in the same range of IC50: 1 to 500 nM for the first, 1 to 500 nM for the second.

COc1cc(Cl)cc(-c2cc(N[C@H]3CC[C@H](N)C3)n3nccc3n2)c1 [Compound 165] and COc1cc(C)cc(-c2cc(N[C@H]3CC[C@H](N)C3)n3nccc3n2)c1 [Compound 161] fall in the same range of IC50: 1 to 500 nM for the first, 1 to 500 nM for the second.

CC1(c2cc(N[C@H]3CC[C@H](N)C3)n3nccc3n2)CC1 [Compound 123] and CCc1cc(N[C@H]2CC[C@H](N)C2)n2nccc2n1 [Compound 47] fall in the same range of IC50: 1 to 500 nM for the first, 1 to 500 nM for the second.

CCOc1cc(N[C@H]2CC[C@H](N)C2)n2nccc2n1 [Compound 91] and COc1cc(N[C@@H]2CC[C@@H](N)C2)n2nccc2n1 [Compound 168] fall in the same range of IC50: 501 to 1000 nM for the first, 501 to 1000 nM for the second.

First: COc1cc(C)cc(-c2cc(N[C@H]3CC[C@H](N)C3)n3nccc3n2)c1 [Compound 70]
Second: COc1cc(N[C@@H]2CC[C@@H](N)C2)n2nccc2n1 [Compound 77]
The IC50 of the first is lower: 1 to 500 nM for the first, 501 to 1000 nM for the second.

CCC(CC)c1cc(N[C@H]2CC[C@H](NC(=O)c3cnc(C)cn3)C2)n2nccc2n1 [Compound 148] and CCC(CC)c1cc(N[C@H]2CC[C@H](N(C)CCOC)C2)n2nccc2n1 [Compound 153] fall in the same range of IC50: 1 to 500 nM for the first, 1 to 500 nM for the second.

First: N[C@H]1CC[C@H](Nc2cc(-c3ccc4ccccc4c3)nc3ccnn23)C1 [Compound 160]
Second: N[C@H]1CC[C@H](Nc2cc(Nc3cccc4ccccc34)nc3ccnn23)C1 [Compound 80]
The IC50 of the first is higher: 501 to 1000 nM for the first, 1 to 500 nM for the second. The second is the more potent here.

CC(=O)Nc1cc(N[C@@H]2CC[C@@H](N)C2)n2ncc(Cl)c2n1 [Compound 127] and CC(C)c1cc(N[C@H]2CC[C@H](N)C2)n2ncc(C#N)c2n1 [Compound 64] fall in the same range of IC50: 1 to 500 nM for the first, 1 to 500 nM for the second.

N[C@H]1CC[C@H](Nc2cc(C3=CCOCC3)nc3ccnn23)C1 [Compound 110] and N[C@H]1CC[C@H](Nc2cc(C3=CCOC3)nc3ccnn23)C1 [Compound 126] fall in the same range of IC50: 501 to 1000 nM for the first, 501 to 1000 nM for the second.

First: COC(=O)N[C@H]1CC[C@H](Nc2cc(C3CC3)nc3ccnn23)C1 [Compound 89]
Second: CC1CCC(c2cc(N[C@H]3CC[C@H](N)C3)n3nccc3n2)CC1 (some centres unmarked) [Compound 122]
The IC50 of the first is higher: greater than 1000 nM for the first, 1 to 500 nM for the second. The second is the more potent here.

First: CC(C)c1cc(N[C@@H]2CCN(C)C2)n2nccc2n1 [Compound 135]
Second: CCC(C)c1cc(N[C@@H]2CC[C@@H](NC=O)C2)n2nccc2n1 (some centres unmarked) [Compound 143]
The IC50 of the first is higher: greater than 1000 nM for the first, 1 to 500 nM for the second.

First: N[C@H]1CC[C@H](Nc2cc(-c3ccc(C4CC4)cc3)nc3ccnn23)C1 [Compound 114]
Second: N[C@H]1CC[C@H](Nc2cc(C3CCOC3)nc3ccnn23)C1 (some centres unmarked) [Compound 124]
The IC50 of the first is lower: 1 to 500 nM for the first, 501 to 1000 nM for the second.

N[C@H]1CC[C@H](Nc2cc(C3CCCCC3)nc3ccnn23)C1 [Compound 206] and N[C@H]1CC[C@H](Nc2cc(C3=CCCCC3)nc3ccnn23)C1 [Compound 200] fall in the same range of IC50: 1 to 500 nM for the first, 1 to 500 nM for the second.

Compared with CC(C)c1cc(N[C@H]2CC[C@H](N)C2)n2nc(N)cc2n1 [Compound 183], CN1CCN(c2cc(N[C@H]3CC[C@H](N)C3)n3nccc3n2)CC1=O [Compound 102] is lower in IC50: greater than 1000 nM for the first, 1 to 500 nM for the second.

With CCC(CC)c1cc(N[C@H]2CC[C@H](NC(=O)c3cnc(C)cn3)C2)n2nccc2n1 [Compound 57] the IC50 was 1 to 500 nM.
